In PMC7279002, “Novel 3′-Substituted-1′,2′,4′-Oxadiazole Derivatives of 18βH-Glycyrrhetinic Acid and Their O-Acylated Amidoximes: Synthesis and Evaluation of Antitumor and Anti-Inflammatory Potential In Vitro and In Vivo” (International Journal of Molecular Sciences, 2020):
Like-named read-outs stand apart in the source and are kept apart here.

Key:
[1] = system: carrageenan-induced paw edema; test: Carrageenan-induced paw edema; assay type: in vivo, ICR mice; settings: gastric gavage 1 h before carrageenan, 5 h after induction; 3d 50 mg/kg, indomethacin 20 mg/kg
Description: To induce paw edema, ICR mice were injected with 1% carrageenan (50 μL) on the plantar side of the right hind paw. […] Mice were sacrificed 5 h after induction of paw edema. The percent of edema weight in carrageenan-injected compound-treated groups in comparison to that in vehicle-treated control group was calculated according to the formula: % Edema=(M1−M2/M2)^compound/∑n(M1−M2/M2)^vehicle×n×100%, where M1 is the weight of the paw with carrageenan-induced edema; M2 is the weight of the intact paws; compound and vehicle correspond to the compound- and vehicle-treated phlogogen-injected mice, respectively; and n is the number of mice in the control group (n = 9). Furthermore, paw material was collected for subsequent histological analysis.
For histological analysis, the specimens of intact and edema paws from each animal were dehydrated in ascending ethanol and xylol and embedded in HistoMix paraffin (BioVitrum, Russia). Paraffin sections (5 μm) were sliced on a Microm HM 355S microtome (Thermo Fisher Scientific, Waltham, MA, USA) and stained with hematoxylin and eosin. Images were obtained using an Axiostar Plus microscope equipped with an Axiocam MRc5 digital camera (Zeiss, Oberkochen, Germany) at ×100 and ×400 magnifications.

[2] = system: human cervical carcinoma HeLa; test: MTT cytotoxicity assay, 48 h; assay type: cell-based; settings: for IC50: Homo sapiens, HeLa, MTT, 48 h, read-out: IC50, µM Cervix HeLa; for Selectivity index: HeLa: IC50 in hFF3 / IC50 in HeLa
Description: (§1) On the first step of the biological evaluation of novel GA derivatives 3a-h, 4a-h, and 5a-h, we analyzed their cytotoxicity in a panel of cultured mammalian cells, including human cervical carcinoma HeLa and KB-3-1, human duodenal carcinoma HuTu-80, human lung adenocarcinoma A549, murine melanoma B16 cell lines, and nontransformed human fibroblasts hFF3. The cells were treated with derivatives for 48 h and cell viability was evaluated by 3-(4, 5-dimethylthiazol-2-yl)-2, 5-diphenyltetrazolium bromide (MTT) assay. Since the studied compounds contain two types of functional groups at position 3-acetoxy- or the hydroxyl-group, 3-acetoxy-GA 1 and GA-Me were used as references. Additionally, hierarchical clustering of cytotoxic data was carried out in order to reveal groups of compounds with similar cytotoxic profiles (Figure 2A).
(§2) Human cervical carcinoma HeLa and KB-3-1 cells, human duodenal carcinoma HuTu-80 cells, and human lung adenocarcinoma A549 cells were obtained from the Russian Culture Collection (Institute of Cytology, RAS, St. Petersburg, Russia). Melanoma B16-F10 (hereafter, melanoma B16) cells were obtained from the Cell Culture Bank of the Blokhin National Medical Oncology Research Center (Moscow, Russia). Nonmalignant fibroblasts hFF3 and RAW264.7 macrophages were kindly provided by Dr. Olga A. Koval (Institute of Chemical Biology and Fundamental Medicine, SB RAS, Novosibirsk, Russia) and Prof. Dmitry Kuprash (Engelhardt Institute of Molecular Biology, RAS, Moscow, Russia), respectively. The cells were cultured in DMEM (Sigma-Aldrich Inc., St. Louis, MO, USA) supplemented with 10% (v/v) heat-inactivated fetal bovine serum (FBS) (BioloT, St. Petersburg, Russia) and antibiotic–antimycotic solution (100 U/mL penicillin, 100 µg/mL streptomycin, 0.25 µg/mL amphotericin). […] The cells were incubated at 37 °C in a humidified 5% CO2-containing air atmosphere (hereafter referred to as standard conditions). GA derivatives were dissolved in DMSO (stock solutions: 10 mM) and stored at −20 °C prior to use.
(§3) Cells were seeded in tetra- or pentaplicates in 96-well plates at a density of 10^4 (tumor cells and […] fibroblasts) or 10^5 (RAW264.7 cells) cells per well. Cells were incubated under standard conditions for 24 h, followed by their treatment with the investigated derivatives (0.5–50 µM) or corresponding concentrations of DMSO (control) for a further 48 h (tumor cells and fibroblasts) or 24 h (RAW264.7 cells). At the end of incubation period, 10 µL of MTT solution was added to the cells (final concentration: 0.5 mg/mL) and plates were incubated for an additional 2 h under standard conditions. Then, the MTT-containing medium was aspirated and formazan crystals formed in living cells were solubilized with 100 µL of DMSO. The absorbance of each well was read at test and reference wavelengths of 570 and 620 nm, respectively, on a Multiscan RC plate reader (Thermo LabSystems, Helsinki, Finland). The IC50 values (the concentration of compounds leading to a decrease of A570 to 50% of A570^control) were calculated by extrapolation of the dose–response curves. […] A heatmap of SI values was constructed by Microsoft Excel 2010.

[3] = system: human cervical carcinoma KB-3-1; test: MTT cytotoxicity assay, 48 h; assay type: cell-based; settings: for IC50: Homo sapiens, KB 3-1, MTT, 48 h, read-out: IC50, µM Cervix KB-3-1; for Selectivity index: KB-3-1: IC50 in hFF3 / IC50 in KB-3-1
Description: as §1, §2, §3

[4] = system: human duodenal carcinoma HuTu-80; test: MTT cytotoxicity assay, 48 h; assay type: cell-based; settings: for IC50: Homo sapiens, HuTu80, MTT, 48 h, read-out: IC50, µM Duodenum HuTu-80; for Selectivity index: HuTu-80: IC50 in hFF3 / IC50 in HuTu-80
Description: as §1, §2, §3

[5] = system: human lung adenocarcinoma A549; test: MTT cytotoxicity assay, 48 h; assay type: cell-based; settings: for IC50: Homo sapiens, A549, MTT, 48 h; for Selectivity index: A549: IC50 in hFF3 / IC50 in A549
Description: as §1, §2, §3

[6] = system: murine melanoma B16; test: MTT cytotoxicity assay, 48 h; assay type: cell-based; settings: for Selectivity index: B16: IC50 in hFF3 / IC50 in B16; for IC50: Mus musculus, MTT, 48 h
Description: as §1, §2, §3

[7] = system: nontransformed human fibroblasts hFF3; test: MTT cytotoxicity assay, 48 h; assay type: cell-based; settings: Homo sapiens, HFF-3, read-out: IC50, µM Fibroblast hFF3
Description: as §1, §2, §3

[8] = system: HeLa, KB-3-1, HuTu-80, A549, B16 and hFF3 cells; test: MTT cytotoxicity, summary over the panel of cell lines; assay type: cell-based
Description: as §1, §3

[9] = system: carrageenan-induced peritonitis; test: Carrageenan-induced peritonitis; assay type: in vivo, ICR mice; settings: i.p. 1 h before carrageenan, 4 h
Description: To study the effect of 3d on carrageenan-induced peritonitis, ICR mice were injected with 1% carrageenan (250 μL) intraperitoneally (i.p.). Compound 3d (50 mg/kg), vehicle (10% Tween-80), dexamethasone (1 mg/kg) as a reference anti-inflammatory drug, and saline buffer were administered i.p. 1 h before peritonitis induction. The healthy uninflamed group (control) was injected i.p. by saline. Mice were sacrificed 4 h after carrageenan injection and their peritoneal cavities were washed with 2 mL of heparinized cold saline buffer to obtain peritoneal cells. The peritoneal exudates were collected and the total leukocyte counts were performed with a Neubauer chamber by optical microscopy after diluting the peritoneal fluid with Turk solution (1:20). To determine the differential leukocyte counts (total 100 cells), peritoneal cells were centrifuged and placed onto slides, stained with azur–eosin by Romanovsky–Giemsa and examined by optical microscopy. The results were expressed as the number of total leukocytes (×10^5 cells/mL) and the percentages of subpopulations of neutrophils, lymphocytes, and monocytes.

[10] = median over all tested cell lines, read-out: median IC50

Row | SMILES | decrease of the weight of edema compared with vehicle-treated mice [1] | IC50 [2] | Selectivity index: HeLa [2] | IC50 [3] | Selectivity index: KB-3-1 [3] | IC50 [4] | Selectivity index: HuTu-80 [4] | IC50 [5] | Selectivity index: A549 [5] | Selectivity index: B16 [6] | IC50 [6] | IC50 [7] | IC50 [8, 10] | melting point | cytotoxicity in all tested cell lines [8] | IC50 ([8]; read-out: IC50 values with respect to all tested cell lines) | distribution of leukocyte subpopulations in peritoneal fluid [9] | decrease of the total leukocyte number in peritoneal exudates ([9]; 3d 50 mg/kg, dexamethasone 1 mg/kg)
1 | COc1ccc2c(c1)c(CC(=O)O)c(C)n2C(=O)c1ccc(Cl)cc1 [indomethacin, reference compound] | three-fold |  |  |  |  |  |  |  |  |  |  |  |  |  |  |  |  | 
2 | CC(=O)O[C@H]1CC[C@@]2(C)C(CC[C@]3(C)C2C(=O)C=C2[C@@H]4C[C@@](C)(C(=O)O/N=C(\C)N)CC[C@]4(C)CC[C@]23C)C1(C)C (stereo partly drawn) [Compound 3a] |  | 2.6 ± 0.1 µM | 0.7 | 5.9 ± 0.2 µM | 0.3 | 2.3 ± 0.1 µM | 0.7 | 2.6 ± 0.1 µM | 0.7 | 0.3 | 6.8 ± 0.2 µM | 1.7 ± 0.1 µM | 2.6 µM | 112.8 to 117.3 °C |  |  |  | 
3 | CC(=O)O[C@H]1CC[C@@]2(C)C(CC[C@]3(C)C2C(=O)C=C2[C@@H]4C[C@@](C)(c5nc(-c6ccccn6)no5)CC[C@]4(C)CC[C@]23C)C1(C)C (stereo partly drawn) [Compound 4f, 30-nor-3β-acetoxy-11-oxo-20-(3′-(pyridin-2′′-yl)-1′,2′,4′-oxadiazol-5′-yl)-18βH-olean-12-en] |  | 17.9 ± 7.7 µM | 0.6 | 10.3 ± 1.2 µM | 1.1 | 11.4 ± 1 µM | 1.0 | 40.3 ± 4.1 µM | 0.3 | 1.9 | 6 ± 2.3 µM | 11.5 ± 1 µM | 11.5 µM | 293.5 to 297.9 °C |  |  |  | 
4 | CC(=O)O[C@H]1CC[C@@]2(C)C(CC[C@]3(C)C2C(=O)C=C2[C@@H]4C[C@@](C)(c5nc(-c6ccncc6)no5)CC[C@]4(C)CC[C@]23C)C1(C)C (stereo partly drawn) [Compound 4h, 30-nor-3β-acetoxy-11-oxo-20-(3′-(pyridin-4″-yl)-1′,2′,4′-oxadiazol-5′-yl)-18βH-olean-12-en] |  | > 50 µM |  | > 50 µM |  | 49.7 ± 2.4 µM | >1.0 | > 50 µM |  |  | > 50 µM | > 50 µM |  | 265.3 to 267.3 °C | nontoxic | ≥ 50 µM |  | 
5 | C[C@@H]1C[C@H]2[C@@H]3CCC4=CC(=O)C=C[C@]4(C)[C@@]3(F)[C@@H](O)C[C@]2(C)[C@@]1(O)C(=O)CO [dexamethasone, reference compound] |  |  |  |  |  |  |  |  |  |  |  |  |  |  |  |  | did not affect the distribution of the leukocyte subpopulation | 1.8 fold
6 | CC(=O)O[C@H]1CC[C@@]2(C)C(CC[C@]3(C)C2C(=O)C=C2[C@@H]4C[C@@](C)(c5nc(-c6cccnc6)no5)CC[C@]4(C)CC[C@]23C)C1(C)C (stereo partly drawn) [Compound 4g, 30-nor-3β-acetoxy-11-oxo-20-(3′-(pyridin-3′′-yl)-1′,2′,4′-oxadiazol-5′-yl)-18βH-olean-12-en] |  | > 50 µM |  | 9.5 ± 0.5 µM | > 5.3 | 5.8 ± 0.5 µM | > 8.6 | 49.7 ± 4.5 µM | >1.0 |  | > 50 µM | > 50 µM | 49.9 µM | 253.2 °C (dec.) |  |  |  | 
7 | CC(C)c1noc([C@@]2(C)CC[C@]3(C)CC[C@]4(C)C(=CC(=O)C5[C@@]6(C)CC[C@H](O)C(C)(C)C6CC[C@]54C)[C@@H]3C2)n1 (stereo partly drawn) [Compound 5c, 30-nor-3β-hydroxy-11-oxo-20-(3′-isopropyl-1′,2′,4′-oxadiazol-5′-yl)-18βH-olean-12-en] |  | 2.6 ± 0.1 µM | 2.2 | 5.9 ± 0.1 µM | 0.9 | 9.5 ± 0.5 µM | 0.6 | 4.5 ± 1.1 µM | 1.2 | 0.8 | 6.6 ± 0.1 µM | 5.6 ± 1 µM | 5.8 µM | 216.4 to 219.7 °C |  |  |  | 
8 | CC1(C)C2CC[C@]3(C)C(C(=O)C=C4[C@@H]5C[C@@](C)(c6nc(-c7ccccc7)no6)CC[C@]5(C)CC[C@]43C)[C@@]2(C)CC[C@@H]1O (stereo partly drawn) [Compound 5e, 30-nor-3β-hydroxy-11-oxo-20-(3′-phenyl-1′,2′,4′-oxadiazol-5′-yl)-18βH-olean-12-en] |  | 20.3 ± 2.2 µM | > 2.5 | > 50 µM |  | > 50 µM |  | > 50 µM |  |  | > 50 µM | > 50 µM |  | 231.7 to 232.1 °C | nontoxic |  |  | 
